Measurements published in patent US10138212B2, “Aminoquinazoline compounds as A2A antagonist” (Merck Sharp & Dohme Corp., priority 2015, dated 2018).

How the values were obtained:
human A1 receptor = human A1 receptor (Homo sapiens (Human), UniProt P30542); assay: A1 competition binding assay using Scintillation Proximity technology; selectivity = A1 binding Ki / A2a binding Ki; conditions: A1 binding Ki divided by A2a binding Ki
In short: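 SPA competition using 5 ug membranes from CHO-K1 cells expressing human A1, pretreated with adenosine deaminase. Radioligand was 0.7 nM [3H]DPCPX (final), with compound at 3000–0.15 nM in DPBS + 10 mM MgCl2. Incubation was 1 h at room temperature. Non-specific binding was defined with 1 uM DPCPX, and Ki was derived as for A2a.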

human A2a receptor = human A2a receptor (Homo sapiens (Human), UniProt P29274); assay: A2a competition binding assay using Scintillation Proximity technology
Chain of human A2a receptor (P29274 whole entry): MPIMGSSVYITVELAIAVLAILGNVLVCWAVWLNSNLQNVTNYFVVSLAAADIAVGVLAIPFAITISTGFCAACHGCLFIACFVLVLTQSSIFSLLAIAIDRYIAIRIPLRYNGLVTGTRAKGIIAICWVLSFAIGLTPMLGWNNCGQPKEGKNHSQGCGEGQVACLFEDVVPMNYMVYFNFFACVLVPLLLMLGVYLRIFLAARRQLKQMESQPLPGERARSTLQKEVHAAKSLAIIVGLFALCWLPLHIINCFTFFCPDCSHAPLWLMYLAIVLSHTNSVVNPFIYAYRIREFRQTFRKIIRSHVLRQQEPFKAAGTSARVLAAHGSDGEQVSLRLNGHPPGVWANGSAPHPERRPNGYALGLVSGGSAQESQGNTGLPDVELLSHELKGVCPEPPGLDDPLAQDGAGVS
In short: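 Membranes (0.25 or 1 μg) from HEK293 expressing the receptor were pretreated with adenosine deaminase and bound to WGA-coated yttrium silicate SPA beads. They were incubated 1 h at room temperature with compound at 3000–0.15 nM and 0.5 nM tritiated pyrazolotriazolopyrimidine ligand in Ca/Mg-free DPBS with 10 mM MgCl2. Ki was derived from […] by Cheng-Prusoff.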

[1] = 0.25 μg of membranes from HEK293 cells expressing the human A2a receptor
[2] = * assay run with 1 μg of membranes versus 0.25 μg, HEK293 cells expressing the human A2a receptor

Chain of human A1 receptor (P30542 whole entry): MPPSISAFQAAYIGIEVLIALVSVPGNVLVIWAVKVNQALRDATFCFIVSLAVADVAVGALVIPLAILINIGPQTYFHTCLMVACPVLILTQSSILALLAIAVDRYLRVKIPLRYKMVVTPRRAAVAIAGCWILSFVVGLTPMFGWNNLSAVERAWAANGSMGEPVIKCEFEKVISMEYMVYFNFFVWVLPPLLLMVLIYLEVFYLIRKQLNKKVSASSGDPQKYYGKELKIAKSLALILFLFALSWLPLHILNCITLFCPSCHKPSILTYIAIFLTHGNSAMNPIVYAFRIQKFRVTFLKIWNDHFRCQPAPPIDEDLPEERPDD

SMILES	A2a selectivity (A2a A1 binding selectivity) (human A1 receptor)	Ki (human A2a receptor; [1]) [nM]	Ki (human A2a receptor; [2]) [nM]
COc1cccc2c(C(=O)NCc3ncc(F)cc3F)nc(N)nc12 [Example 29, 2-amino-N-[(3,5-difluoro-2-pyridyl)methyl]-8-methoxy-quinazoline-4-carboxamide]	118	2.9	
COc1cccc2c(C(=O)NC(C)(C)c3ccccn3)nc(N)nc12 [Example 39, 2-amino-8-methoxy-N-[1-methyl-1-(2-pyridyl)ethyl]quinazoline-4-carboxamide]	9	415	
CSc1cccc2c(C(=O)NCc3cccc4cccnc34)nc(N)nc12 [Example 94, 2-amino-8-methylsulfanyl-N-(8-quinolylmethyl)quinazoline-4-carboxamide]	11		7.7
COc1cccc2c(C(=O)NCc3cccc(CN4CCOCC4)c3)nc(N)nc12 [Example 53, 2-amino-8-methoxy-N-[[3-(morpholinomethyl)phenyl]methyl]quinazoline-4-carboxamide]	63	7.1	
Nc1nc(C(=O)NCc2cccc3c2OCCN3)c2cccc(F)c2n1 [Example 84, 2-amino-N-(3,4-dihydro-2H-1,4-benzoxazin-8-ylmethyl)-8-fluoro-quinazoline-4-carboxamide]	25	5.3	
COC(=O)c1cccc(CNC(=O)c2nc(N)nc3c(F)cccc23)n1 [Example 75, methyl 6-[[(2-amino-8-fluoro-quinazoline-4-carbonyl)amino]methyl]pyridine-2-carboxylate]	14		23
[2H]C([2H])(NC(=O)c1nc(N)nc2c(OC)cccc12)c1cccc(N2CCN(c3ccc(OCCOC)cc3)CC2)n1 [Example 60, 2-amino-N-[dideuterio-[6-[4-[4-(2-methoxyethoxy)phenyl]piperazin-1-yl]-2-pyridyl]methyl]-8-methoxy-quinazoline-4-carboxamide]	67		4.3
COC(=O)c1ccccc1CNC(=O)c1nc(N)nc2c(F)cccc12 [Example 74, methyl 2-[[(2-amino-8-fluoro-quinazoline-4-carbonyl)amino]methyl]benzoate]	18		2.5

Other lines, results leading:

A2a selectivity (A2a A1 binding selectivity) (human A1 receptor)	Ki (human A2a receptor; [1]) [nM]	Ki (human A2a receptor; [2]) [nM]	SMILES
221	1.4		COc1cccc2c(C(=O)NCc3ncccc3F)nc(N)nc12 [Example 25, 2-amino-N-[(3-fluoro-2-pyridyl)methyl]-8-methoxy-quinazoline-4-carboxamide]
764	0.4		COc1cccc2c(C(=O)NCc3cccc(C(C)(C)O)n3)nc(N)nc12 [Example 9, 2-amino-N-[[6-(1-hydroxy-1-methyl-ethyl)-2-pyridyl]methyl]-8-methoxy-quinazoline-4-carboxamide]
560	2.3		Nc1nc(C(=O)NCc2cccc3cccnc23)c2cccc(C(F)(F)F)c2n1 [Example 92, 2-amino-N-(8-quinolylmethyl)-8-(trifluoromethyl)quinazoline-4-carboxamide]
484	2.2		Nc1nc(C(=O)NCc2cccc(COc3ccccn3)n2)c2cccc(F)c2n1 [Example 46, 2-amino-8-fluoro-N-[[6-(2-pyridyloxymethyl)-2-pyridyl]methyl]quinazoline-4-carboxamide]
89	0.5		COc1cccc2c(C(=O)NCc3nc(C)ccc3F)nc(N)nc12 [Example 20, 2-amino-N-[(3-fluoro-6-methyl-2-pyridyl)methyl]-8-methoxy-quinazoline-4-carboxamide]
163	2.1		N#Cc1cccc2c(C(=O)NCc3cccc4cccnc34)nc(N)nc12 [Example 100, 2-amino-8-cyano-N-(8-quinolylmethyl)quinazoline-4-carboxamide]
208	0.2		COc1cccc2c(C(=O)NCc3nc(C)ccc3C)nc(N)nc12 [Example 11, 2-amino-N-[(3,6-dimethyl-2-pyridyl)methyl]-8-methoxy-quinazoline-4-carboxamide]
